Laboratory results taken from patent US9045415B2, “Targeting of EWS-FLI1 as anti-tumor therapy” (Georgetown University, priority 2006, dated 2015).
Where two headings read alike, the source gives them in different places. No end group written: not given here. *: point of attachment. FITC = O=C1OC2(c3ccc(O)cc3Oc3cc(O)ccc32)c2ccc(NC(=S)*)cc21

How the values were obtained:
recombinant EWS-FLI1 = target: T1, recombinant EWS-FLI1 (Homo sapiens, UniProt Q01543+Q01844); test: Surface plasmon resonance (Biacore) binding to EWS-FLI1; settings: read-out: KD
T1 sequence (Q01543 1-452): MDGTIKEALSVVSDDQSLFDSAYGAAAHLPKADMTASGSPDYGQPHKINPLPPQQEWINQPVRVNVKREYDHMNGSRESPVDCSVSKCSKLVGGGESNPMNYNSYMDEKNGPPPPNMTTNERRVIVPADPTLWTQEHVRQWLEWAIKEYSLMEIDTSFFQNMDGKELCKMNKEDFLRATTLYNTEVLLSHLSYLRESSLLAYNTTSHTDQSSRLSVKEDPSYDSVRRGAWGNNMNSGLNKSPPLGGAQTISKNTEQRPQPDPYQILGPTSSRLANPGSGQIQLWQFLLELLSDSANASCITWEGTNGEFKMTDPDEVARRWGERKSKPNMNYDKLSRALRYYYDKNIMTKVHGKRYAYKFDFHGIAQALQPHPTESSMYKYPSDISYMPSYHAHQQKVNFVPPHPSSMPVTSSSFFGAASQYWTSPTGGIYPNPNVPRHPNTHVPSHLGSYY
T1 sequence (Q01844 1-656): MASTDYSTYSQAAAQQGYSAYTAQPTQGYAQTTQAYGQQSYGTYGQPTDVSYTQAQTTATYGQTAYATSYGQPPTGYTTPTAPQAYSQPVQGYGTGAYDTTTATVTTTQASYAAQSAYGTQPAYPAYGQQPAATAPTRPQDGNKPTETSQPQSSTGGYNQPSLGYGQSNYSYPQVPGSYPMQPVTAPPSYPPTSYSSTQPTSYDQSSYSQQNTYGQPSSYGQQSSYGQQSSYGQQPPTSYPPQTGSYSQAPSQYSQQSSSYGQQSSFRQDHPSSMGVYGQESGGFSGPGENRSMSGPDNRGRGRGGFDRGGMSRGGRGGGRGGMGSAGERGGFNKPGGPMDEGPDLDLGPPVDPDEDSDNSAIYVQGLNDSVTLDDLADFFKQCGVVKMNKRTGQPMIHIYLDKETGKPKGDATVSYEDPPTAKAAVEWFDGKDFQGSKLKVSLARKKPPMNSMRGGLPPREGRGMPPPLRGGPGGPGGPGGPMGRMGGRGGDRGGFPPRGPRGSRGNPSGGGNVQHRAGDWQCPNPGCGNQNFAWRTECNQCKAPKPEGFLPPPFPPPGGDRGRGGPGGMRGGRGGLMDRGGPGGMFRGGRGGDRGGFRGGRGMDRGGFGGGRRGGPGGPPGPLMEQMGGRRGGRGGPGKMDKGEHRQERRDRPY
Method: Antp is conjugated to the amino terminal of all peptides used in these studies. Recombinant EWS-FLI1 (MW 55 kDa) was covalently linked to a CM5 chip at a density of 1200 RU, and E9RP (MW 4 kDa) was evaluated for binding. The E9RP analyte concentrations ranged from 0.03-30 μM, and all are shown in duplicate. E9RP bound to EWS-FLI1 with a KD of 4.0 μM.
An assay that will identify whether a peptide can disrupt RHA from interacting with EWS-FLI1 was developed. The Biacore device is a biosensor that utilizes surface plasmon resonance (SPR) to measure the strength of molecular interactions. SPR is the sensitive measurement of […] light based upon alterations of surface characteristics that change with molecules binding to a surface. The Biacore device combines SPR with a microfluidic system.
The KD of E9RP binding to EWS-FLI1 was calculated to be 4.0 μM (FIG. 4).
A surface plasmon resonance assay using the Biacore T100 was established with EWS-FLI1, prepared in our laboratory as previously published (Uren, A., Tcherkasskaya, O. & Toretsky, J. A. Recombinant EWS-FLI1 oncoprotein activates transcription. Biochemistry 43, 13579-13589 (2004)). DNA oligonucleotides were used to quality control the proper conformation of EWS-FLI1 on the surface of a CM5 chip. Small molecules obtained from the Developmental Therapeutics Program of the National Cancer Institute, NIH (http://dtp.nci.nih.gov/branches/dscb/repo_open.html) were prioritized based upon their molecular weight and solubility. An initial screening of molecules was performed at 1 or 10 μM compound, based on solubility. We used a model that compares the actual binding maximum (actual RU) with the theoretical binding maximum (RUtheor). […] Hits (RUactual to RUtheor of 0.7-2.0) were then reviewed by a team of medicinal chemists and those with structural potentials were selected for further study. Selected molecules were tested in vitro in a solution coimmunoprecipitation assay using recombinant EWS-FLI1 and GST-RHA (647-1075).

ESFT cells TC71 = test: Xenografts of TC71 cells transfected with E9R expression plasmids; type: in vivo, mice; settings: mutated control peptide vs wild-type
Method: ESFT cells TC71 were transfected with pGE9R (wild-type sequence peptide (SEQ ID NO: 29)) or pGE9R-D5A (control, mutated peptide; D5A (SEQ ID NO: 31)). In FIG. 10A, fluorescent micrographs of transfected cells after 4 days in culture are presented. […] Bar equals 300 microns. In FIG. 10B, each group contains six mice. Mice legs were measured every 2-3 days. Tumors appeared in 2 weeks. The experiment was terminated after 26 days when the largest tumor caused the mouse to limp. Tumor volumes were calculated according to (D×d2/6)×π formula, where large diameter of tumor mass is D and small diameter is d. 2-way ANOVA analysis, followed by Bonferroni correction for multiple variables, the difference in the two growth curves was highly significant, p=0.016.
The ability of the E9R peptide sequence to prevent ESFT tumorigenesis in a pilot murine xenograft experiment was determined. As a control peptide, the same mutation that prevented wild-type RHA from binding to EWS-FLI1 (D827A, noted in the 10-mer peptide as E9R-D5A) was created. ESFT cells were transfected with either pGE9R or pGE9R-D5A by electroporation. A transfection efficiency of greater than 80% using fluorescent microscopy (FIG. 10A) was observed. […] Every two to three days, each animal's thigh was measured in three dimensions, and tumor volumes were calculated. […]

[1] = tested on: neuroblastoma SKNAS cells; test: Monolayer cell growth, neuroblastoma; type: cell-based; settings: SKNAS monolayer
Source text: FIGS. 8A-E show E9RP inhibits ESFT cell growth. In FIGS. 8A and 8B, E9RP is the peptide region of RHA (SEQ ID NO:29) fused to the Penetratin peptide (from the Antennapedia homeodomain; SEQ ID NO:34) and contains amino-terminal fluorescein (FITC). […] Neither lipids nor electricity were used for transduction of peptides into cells. Confocal microscopy identified peptide throughout cells with nuclear uptake. Nuclear uptake was confirmed by DAPI staining. […] Cell lines were placed in 96-well plates with either vehicle alone (●), or E9RP (10 μM) on days 0, 3 and 5 (▴). No lipid or other transfection method was utilized. This represents two experiments with similar results. FIG. 8D depicts dose response of ESFT 1 to either wild-type or single amino-acid mutant peptides. (▪) wild-type E9RP, (E9R (SEQ ID NO:29) fused to the Penetratin peptide (SEQ ID NO:34)), (▾)(E9RP (P2A peptide (SEQ ID NO:30) fused to the Penetratin peptide (SEQ ID NO:34)), (▴)E9RP (D5A peptide (SEQ ID NO:31) fused to the Penetratin peptide (SEQ ID NO:34)). Growth normalized to treating cells with the 16 aa Antp sequence alone (SEQ ID NO:34). FIG. 8E is a comparison of wild-type versus mutant peptides in ESFT and NB cells.
(§1) In FIG. 13A, recombinant EWS-FLI1 was treated with NSC635437 for 30 minutes. GST-RHA (630-1020) was added and the complexes were then precipitated with antibody to EWS-FLI1 and Protein G beads. Resolved complexes showing the immunoprecipitated complex control without compound are in lanes 3 (0.1% DMSO) and 5 (0.01% DMSO). […] ESFT TC32 (◯) and neuroblastoma SK-N-AS (▪) were grown for 72 hours in the continuous presence of NSC635437. Cells were incubated in MTT reagent for 4 hours and the dried precipitate was dissolved isopropanol and the absorbance read at 570 nm. Each cell line was standardized to the growth of the DMSO control.
(§2) FIG. 30 provides data to show E9R peptide prevents EWS-FLI1 binding to RHA with specific detrimental effects upon ESFT growth and transformation. […] Scale bar equals 20 μm. […] Only expression of EGFP-E9R in TC71 reduced anchorage independent growth. […] Scale bar equals 20 μm.

TC32 cells = test: Monolayer cell growth (MTT or WST), TC32; type: cell-based; settings: TC32 monolayer, 10 μM
Method: as §1, §2
FIG. 33 provides data showing YK-4-279 is potent and specific inhibitor of ESFT. […] Cell number was measured by MTT or WST reduction after seven days in culture. […] FIG. 33D cell lines expressing EWS-FLI1 compared to non-EWS-FLI1 malignant cell lines following 3 days in culture to establish the IC50 using WST assay. […] Graph plots level of fluorescence in treated divided by untreated lysate. […] Scale bar equals 200 μm.

`O=C(CC1(O)C(=O)N(Cc2ccccc2)c2c(Cl)ccc(Cl)c21)c1ccc(Cl)cc1` (centres unmarked) [YK-4-276, 1-Benzyl-4,7-dichloro-3-[2-(4-chlorophenyl-2-oxoethyl)]-3-hydroxyl-1,3-dihydroindol-2-one] showed a melting point of 154 to 156 °C and a Kd (recombinant EWS-FLI1; FIG. 24 experiment) of 10.2 µM.
In the case of `Cc1ccc(C(=O)CC2(O)C(=O)Nc3c(Cl)ccc(Cl)c32)cc1` (centres unmarked) [YK-4-280, 4,7-Dichloro-3-hydroxyl-3-(2-oxo-2-p-tolylethyl)-1,3-dihydroindol-2-one], the melting point is reported as 189 to 192 °C.
`Nc1ccc(C(=O)CC2(O)C(=O)Nc3c(Cl)ccc(Cl)c32)cc1` (centres unmarked) [YK-4-284, 3-[2-(4-Aminophenyl-2-oxoethyl)]-4,7-dichloro-3-hydroxyl 1,3-dihydroindol-2-one] showed a melting point of 240 to 243 °C.
With `O=C(CC1(O)C(=O)Nc2c(Cl)ccc(Cl)c21)c1ccccc1` (centres unmarked) [YK-4-285, 4,7-Dichloro-3-hydroxyl-3-(2-oxo2-phenylethyl)-1,3-dihydroindol-2-one] the melting point was 198 to 200 °C.
`O=C(CC1(O)C(=O)Nc2c(Cl)ccc(Cl)c21)c1ccc(O)cc1` (centres unmarked) [YK-4-289, 4,7-Dichloro-3-hydroxyl-3-[2-(4-hydroxyphenyl-2-oxoethyl)]-1,3-dihydroindol-2-one] gave a melting point of 240 to 242 °C, a Kd (recombinant EWS-FLI1; FIG. 23 experiment) of 6.82 µM and a Kd (recombinant EWS-FLI1; FIG. 24 experiment) of 9.3 µM.
For “PPPLAAVIEA [E9R-D5A, control, mutated peptide D5A, expressed from pGE9R-D5A, reference compound]”, the “tumor take-rate and rate of growth” value (ESFT cells TC71) was “greater”.
In the case of “[FITC]-RQIKIWFQNRRMKWKKPPPLAAVIEA ({FITC}-RQIKIWFQNRRMKWKKPPPLAAVIEA) [E9R(D5A), Antennapedia-E9R-D5A, mutated control peptide, reference compound]”, the “growth of neuroblastoma cells with fluorescein conjugated peptides” value [1] is reported as “slight increase” and the “ESFT cell growth with fluorescein conjugated peptides” value (TC32 cells) is reported as “neither the D5A mutated control nor antennapedia peptides alone reduced ESFT cell growth”.
